Here are results for 1 substance from patent US20030130216A1, “Use of inhibitors of caspase-3 or caspase-activated desoxyribonuclease(cad) for treating cardiac disease” (priority 2000, published 2003).

The test system of the test is healthy adult ventricular cardiac muscle cells. The test is described as follows: Microinjection of activated caspase-3 into isolated ventricular cardiac muscle cells. It is filed as cell-based, rabbit. The following applies: pre-incubation of the muscle cells with inhibitor (100 μmol/l). The procedure: The microinjection experiments were carried out on freshly isolated cardiac muscle cells of sham-operated rabbits by means of a “Femto-Jet” microinjection device (Eppendorf, Hamburg, Germany). FITC-conjugated dextran (6 mg/ml), alone or in combination with human recombinant active caspase-3 (4 ng/μl and 20 ng/μl) in 5 mmol/l potassium phosphate buffer (pH value 7.4; 100 mmol/l KCl) was injected into the cytoplasm of the cells in culture medium (Pi=1000 hPa, ti=0.1 sec., Pc=30 hPa) which had been supplemented with 200 μmol/l BDM (butanedione-monoxime, Sigma, Taufkirchen, Germany), 10 μmol/l verapamil and, optionally, 100 μmol/l […]. After incubation for two hours, contraction measurements or phalloidin staining were carried out. Injected cells were selected by means of FITC fluorescence.
In order to be able to study whether the activation of caspase-3 is sufficient for the induction of the worsening of sarcomere organisation, the activated enzyme was injected into the cytoplasm of healthy adult ventricular cardiac muscle cells. Positive cells (approximately 10 to 20%) were identified by means of FITC fluorescence. The morphological features of the cardiac muscle cells after microinjection of activated caspase-3 (4 ng/μl and 20 ng/μl) in comparison with control-injected cells are shown in FIGS. 9(a+b). […]

As to DEVD-fmk, the “caspase-3-mediated lowering of contraction” value is on record as “blocked”.
